Drawing on patent US11708348B2, “Protease inhibitors for treatment of coronavirus infections” (The Scripps Research Institute, priority 2021, dated 2023), this text covers EC50 for 18 compounds.

Usually EC50 stands for the midpoint of the concentration-response curve.

For this assay, the system named is SARS-CoV-2 strain USA-WA1/2020. The assay is described as follows: microbe, parasite or virus in culture. Format: cell-based. As to conditions: Severe acute respiratory syndrome coronavirus 2, HeLa-ACE2, 24 h, HeLa-ACE2 cells, SARS-CoV-2 infection, 24 h; read-out: EC50, uM (Hela).
Regarding `CN[C@H](CC(C)C)C(=O)N1CC2(CC2)C[C@H]1C(=O)N[C@@H](C[C@@H]1CCNC1=O)C(=O)COC(F)(F)F` [Compound 660, (S)-5-(methyl-D-leucyl)-N-((S)-3-oxo-1-((S)-2-oxopyrrolidin-3-yl)-4-(trifluoromethoxy)butan-2-yl)-5-azaspiro[2.4]heptane-6-carboxamide], the EC50 was 0.05 to 0.2 µM.
The result for `O=C1NCC[C@H]1C[C@H](NC(=O)[C@@H]1CC2(CC2)CN1C(=O)C1CCC(F)(F)CC1)C(=O)COC(F)(F)F` [Compound 661, (S)-5-(4,4-difluorocyclohexane-1-carbonyl)-N-((S)-3-oxo-1-((S)-2-oxopyrrolidin-3-yl)-4-(trifluoromethoxy)butan-2-yl)-5-azaspiro[2.4]heptane-6-carboxamide] reads 0.05 to 0.2 µM.
The result for `C=CC[C@@H](O)C(=O)N1CC2(CC2)C[C@H]1C(=O)N[C@@H](C[C@@H]1CCNC1=O)C(=O)COC(F)(F)F` [Compound 662, (S)-5-((R)-2-hydroxypent-4-enoyl)-N-((S)-3-oxo-1-((S)-2-oxopyrrolidin-3-yl)-4-(trifluoromethoxy)butan-2-yl)-5-azaspiro[2.4]heptane-6-carboxamide] reads 0.05 to 0.2 µM; that for `O=C1NCC[C@H]1C[C@H](NC(=O)[C@@H]1CC2(CC2)CN1C(=O)c1cc2cccc(Cl)c2[nH]1)C(=O)COC(F)(F)F` [Compound 663, (S)-5-(7-chloro-1H-indole-2-carbonyl)-N-((S)-3-oxo-1-((S)-2-oxopyrrolidin-3-yl)-4-(trifluoromethoxy)butan-2-yl)-5-azaspiro[2.4]heptane-6-carboxamide], less than 0.05 µM.
As for `CC(C)(C)C(=O)N1CC2(CC2)C[C@H]1C(=O)N[C@@H](C[C@@H]1CCNC1=O)C(=O)COC(F)(F)F` [Compound 665, (S)-N-((S)-3-oxo-1-((S)-2-oxopyrrolidin-3-yl)-4-(trifluoromethoxy)butan-2-yl)-5-pivaloyl-5-azaspiro[2.4]heptane-6-carboxamide], the concentration for a half-maximal effect (EC50) lay within 0.05 to 0.2 µM.
The value for `COc1ccc(/C=C/C[C@@H](O)C(=O)N2CC3(CC3)C[C@H]2C(=O)N[C@@H](C[C@@H]2CCNC2=O)C(=O)COC(F)(F)F)cc1` [Compound 666, (S)-5-((R,E)-2-hydroxy-5-(4-methoxyphenyl)pent-4-enoyl)-N-((S)-3-oxo-1-((S)-2-oxopyrrolidin-3-yl)-4-(trifluoromethoxy)butan-2-yl)-5-azaspiro[2.4]heptane-6-carboxamide] was 0.05 to 0.2 µM.
The result for `O=C1NCC[C@H]1C[C@H](NC(=O)[C@@H]1CC2(CC2)CN1C(=O)[C@H](O)C/C=C/c1ccc(F)cc1)C(=O)COC(F)(F)F` [Compound 667, (S)-5-((R,E)-5-(4-fluorophenyl)-2-hydroxypent-4-enoyl)-N-((S)-3-oxo-1-((S)-2-oxopyrrolidin-3-yl)-4-(trifluoromethoxy)butan-2-yl)-5-azaspiro[2.4]heptane-6-carboxamide] reads 0.05 to 0.2 µM; that for `O=C1NCC[C@H]1C[C@H](NC(=O)[C@@H]1CC2(CC2)CN1C(=O)CNS(=O)(=O)Nc1ccccc1)C(=O)COC(F)(F)F` [Compound 669, (S)-N-((S)-3-oxo-1-((S)-2-oxopyrrolidin-3-yl)-4-(trifluoromethoxy)butan-2-yl)-5-((N-phenylsulfamoyl)glycyl)-5-azaspiro[2.4]heptane-6-carboxamide], 0.05 to 0.2 µM; that for `O=C1NCC[C@H]1C[C@H](NC(=O)[C@@H]1CC2(CC2)CN1C(=O)CCNS(=O)(=O)Nc1ccccc1)C(=O)COC(F)(F)F` [Compound 670, (S)-N-((S)-3-oxo-1-((S)-2-oxopyrrolidin-3-yl)-4-(trifluoromethoxy)butan-2-yl)-5-(3-((N-phenylsulfamoyl)amino)propanoyl)-5-azaspiro[2.4]heptane-6-carboxamide], 0.2 to 0.5 µM.
The result for `CC(C)C[C@@H](O)C(=O)N[C@@H](Cc1cccc(F)c1)C(=O)N[C@@H](C[C@@H]1CCNC1=O)C(=O)COC(F)(F)F` [Compound 671, (R)-N-((S)-3-(3-fluorophenyl)-1-oxo-1-(((S)-3-oxo-1-((S)-2-oxopyrrolidin-3-yl)-4-(trifluoromethoxy)butan-2-yl)amino)propan-2-yl)-2-hydroxy-4-methylpentanamide] reads less than 0.05 µM; that for `O=C1NCC[C@H]1C[C@H](NC(=O)[C@@H]1CC2(CC2)CN1C(=O)CNCC(F)(F)F)C(=O)COC(F)(F)F` [Compound 672, (S)-N-((S)-3-oxo-1-((S)-2-oxopyrrolidin-3-yl)-4-(trifluoromethoxy)butan-2-yl)-5-((2,2,2-trifluoroethyl)glycyl)-5-azaspiro[2.4]heptane-6-carboxamide], 0.05 to 0.2 µM.
Turning to `O=C1NCC[C@H]1C[C@H](NC(=O)[C@@H]1CC2(CC2)CN1C(=O)COCC(F)(F)F)C(=O)COC(F)(F)F` [Compound 673, (S)-N-((S)-3-oxo-1-((S)-2-oxopyrrolidin-3-yl)-4-(trifluoromethoxy)butan-2-yl)-5-(2-(2,2,2-trifluoroethoxy)acetyl)-5-azaspiro[2.4]heptane-6-carboxamide], the concentration giving a half-maximal response (EC50) lay in the range of 0.05 to 0.2 µM.
As for `O=C(C(=O)N1CC2(CC2)C[C@H]1C(=O)N[C@@H](C[C@@H]1CCNC1=O)C(=O)COC(F)(F)F)c1ccccc1` [Compound 674, (S)-N-((S)-3-oxo-1-((S)-2-oxopyrrolidin-3-yl)-4-(trifluoromethoxy)butan-2-yl)-5-(2-oxo-2-phenylacetyl)-5-azaspiro[2.4]heptane-6-carboxamide], the concentration giving a half-maximal response (EC50) lay in the range of 0.05 to 0.2 µM.
With `CS(=O)(=O)NC/C=C/C[C@@H](O)C(=O)N1CC2(CC2)C[C@H]1C(=O)N[C@@H](C[C@@H]1CCNC1=O)C(=O)COC(F)(F)F` [Compound 675, (S)-5-((R,E)-2-hydroxy-6-(methylsulfonamido)hex-4-enoyl)-N-((S)-3-oxo-1-((S)-2-oxopyrrolidin-3-yl)-4-(trifluoromethoxy)butan-2-yl)-5-azaspiro[2.4]heptane-6-carboxamide], the EC50 lay in the range of 0.2 to 0.5 µM.
For `CNC(=O)C(=O)N1CC2(CC2)C[C@H]1C(=O)N[C@@H](C[C@@H]1CCNC1=O)C(=O)COC(F)(F)F` [Compound 676, (S)-5-(2-(methylamino)-2-oxoacetyl)-N-((S)-3-oxo-1-((S)-2-oxopyrrolidin-3-yl)-4-(trifluoromethoxy)butan-2-yl)-5-azaspiro[2.4]heptane-6-carboxamide], the 50% effective concentration (EC50) fell in the range of 0.05 to 0.2 µM.
For the compound `CNC(=O)C(=O)N[C@@H](Cc1cccc(F)c1)C(=O)N[C@@H](C[C@@H]1CCNC1=O)C(=O)COC(F)(F)F` [Compound 677, N1-((S)-3-(3-fluorophenyl)-1-oxo-1-(((S)-3-oxo-1-((S)-2-oxopyrrolidin-3-yl)-4-(trifluoromethoxy)butan-2-yl)amino)propan-2-yl)-N2-methyloxalamide], the 50% effective concentration (EC50) is less than 0.05 µM.
The result for `CC(F)(F)CCC(=O)N1CC2(CC2)C[C@H]1C(=O)N[C@@H](C[C@@H]1CCNC1=O)C(=O)COC(F)(F)F` [Compound 678, (S)-5-(4,4-difluoropentanoyl)-N-((S)-3-oxo-1-((S)-2-oxopyrrolidin-3-yl)-4-(trifluoromethoxy)butan-2-yl)-5-azaspiro[2.4]heptane-6-carboxamide] reads less than 0.05 µM; that for `O=C1NCC[C@H]1C[C@H](NC(=O)[C@@H]1CC2(CC2)CN1C(=O)[C@@H]1CCCO1)C(=O)COC(F)(F)F` [Compound 679, (S)-N-((S)-3-oxo-1-((S)-2-oxopyrrolidin-3-yl)-4-(trifluoromethoxy)butan-2-yl)-5-((S)-tetrahydrofuran-2-carbonyl)-5-azaspiro[2.4]heptane-6-carboxamide], 0.2 to 0.5 µM.
